In patent publication US20020173447A1, “Cytostatic effects of fatty acid synthase inhibition” (priority 2001, published 2002):

Columns and labels:
MCF7 breast cancer cells = assay: Alkaline single cell gel electrophoresis (comet assay), MCF7; assay type: cell-based, human; conditions: 3 h, doses bracketing 75% survival at 24 h
From the text: This assay detects DNA strand breaks, and a spectrum of alkali-labile DNA damage at low levels (Singh, N. P., McCoy, M. T., Tice, R. R., and Schneider, E. L., “A simple Technique for Quantitation of Low Levels of DNA Damage in Individual Cells,” Experimental Cell Research, 175:184-191, (1988); Plappert, U., Raddatz, K., Roth, S., and Fliedner, T. M., “DNA-Damage Detection in Man After Radiation Exposure—the Comet Assay—Its Possible Application for Human Biomonitoring,” Stem Cells, 13 Supplement 1:215-222, (1995)).
Cerulenin- or C-75-treated MCF7 breast carcinoma cells were subjected to alkaline single cell gel electrophoresis (comet assay). MCF7 breast cancer cells were treated with cerulenin or C-75 for 3 h at doses bracketing 75% survival at 24 h. All experiments were repeated three times and duplicate slides from each experiment were prepared and scored. […] Neutralized, dehydrated slides were stained with ethidium bromide (2 ng/ml) and comets scored under a Nikon fluorescence microscope (with TRITC filters) coupled to a KOMET 4.0 software (Kinetic Imaging Ltd).
Olive tail moment indicates electrophoretic mobility of DNA induced by DNA damage. […] One hundred consecutive cells were scored from the middle of each slide, and the means calculated. The final results were expressed as the (mean of the individual means)±(standard deviation of the means). […]

p53 = assay: Immunoblot of p53 protein in RKO cells; assay type: cell-based, human; conditions: 10 μg/ml, 16 and 24 h
Description: (§1) Accumulation of p53 protein, and the p53-regulated cdk inhibitor p21WAF1/CIP1, were assayed by immunoblotting in a parallel time course after inhibition of FAS (FIG. 4). Cells were treated with cerulenin (10 μg/ml) (A) or C-75 (10 μg/ml) (B) for the stated exposure times, and analyzed by immunoblotting for p53 and p21 protein content, with actin as an internal control. One million cells per 60-mm plate were treated with 10 μg/ml cerulenin or C-75 in duplicate for the indicated time intervals; control cells received equivalent amounts of DMSO. After drug treatment, cells were lysed with 200 μl Laemmli sample buffer and boiled. Ten μl of each lysate per lane was separated by SDS-PAGE, transferred to nitrocellulose, and exposed to antibodies against p53 (Pab1801, Oncogene Research Products), p21 (6B6, PharMingen) or actin (I-19, Santa Cruz), followed by horseradish peroxidase-conjugated goat anti-mouse or rabbit anti-goat antibody (Pierce), enhanced chemiluminescence (Amersham) and autoradiography.

[1] = test system: cyclin A-associated kinase activity; assay: Immunocomplex-kinase assay after drug exposure of RKO cells, cyclin A; assay type: cell-based, human; conditions: 10 μg/ml, later time points (16 and 24 h)
Description: The effect of FAS inhibitors on the activity of cyclin/cdk complexes in RKO cells was determined in a time course analysis. After RKO cells were exposed to FAS inhibitors for the indicated time periods, cyclin A- and cyclin B 1-associated kinase activities were determined by an immunocomplex-kinase assay.
Five×10^6 RKO cells per 100-mm plate were treated with 10 μg/ml cerulenin or C-75 for the indicated time intervals. The control cells received equivalent amounts of DMSO. After drug treatment, the plates were washed once and lysed with immunoprecipitation (IP) buffer (150 mM Tris, pH 7.4, 150 mM NaCl, 1% Triton X-100, 0.5% NP-40, 1 mM ethyleneglyco-bis-tetraacetic acid, 0.2 mM sodium vanadate, and 0.2 mM phenylmethylsulfonyl fluoride). Protein concentration was measured using the BCA Protein Assay Kit (Pierce). One hundred μg of protein from each sample was incubated at 4° C. for 1 h with 1 μg of primary antibody (anti-human cyclin A rabbit polyclonal antibody or anti-human cyclin B 1 monoclonal antibody, Santa Cruz) and then overnight after addition of Protein A or protein G-Sepharose (Santa Cruz). […] Samples were resolved by electrophoresis through 12% SDS-polyacrylamide gels and quantitated on a Storm 820 system (Molecular Dynamics). […]

RKO-p53 cells = assay: Apoptosis by merocyanine 540 multiparameter flow cytometry; assay type: cell-based, human
From the text: The effect of p53 function on survival after FAS inhibition was investigated by comparing two pairs of isogenic cell lines with wild-type and altered p53 function. RKO cells were rendered p53-mutant by stable transfection with a dominant-negative mutant p53 gene (RKO-p53); the human breast carcinoma cell line MCF7 was rendered p53-deficient by constitutive expression of the human papilloma virus 16 E6 gene (MCF7-E6) (Fan, S., Smith, M. L., Rivet, D. J., 2nd, Duba, D., Zhan, Q., Kohn, K. W., Fornace, A. J., Jr., and PM, O. C., “Disruption of p53 Function Sensitizes Breast Cancer MCF-7 Cells to Cisplatin and Pentoxifylline,” Cancer Research, 55:1649-1654, (1995)).
Cells were exposed to cerulenin or C-75 for the indicated doses and time intervals, then detached from plastic with trypsin for flow cytometry analysis. Apoptosis was measured by multiparameter flow cytometry using a FACStar^Plus flow cytometer equipped with argon and krypton lasers (Becton Dickinson). […] Merocyanine 540-positive cells were identified using 488-nm excitation from an argon laser and a 575-nm DF26 bandpass filter for collection of events with increased red fluorescence. Data were collected and analyzed using CellQuest software (Becton Dickinson). […]

RKO cells = assay: BrdU pulse/chase cell cycle progression by laser scanning cytometry; assay type: cell-based, human; conditions: 10 μg/ml, chase 4-24 h
Description: A similar experiment measured cell cycle progression by pulse/chase labeling with bromodeoxyuridine (BrdU, FIG. 2). The BrdU-positive S-phase fraction at time zero progresses through the cell cycle at later time points. B. The progress of BrdU pulse-labeled RKO cells through the cell cycle was monitored over 24 h without inhibition of FAS, or during exposure to cerulenin (10 μg/ml) or C-75 (10 μg/ml).
Dual-parameter detection of Bromodeoxyuridine (BrdU) labeling and DNA content was performed using a laser scanning cytometer (Compucyte Corp.). Cell cultures were pulse-labeled for 20 min with 10 μM BrdU, and chased for the indicated times in the absence or presence of drug, then detached from plastic with trypsin, ethanol-fixed and applied to glass slides. Cells were subjected to standard heat-induced epitope retrieval (DAKO) before staining with anti-BrdU antibody (DAKO) and FITC-conjugated goat anti-mouse antibody (CALTAG, DAKO Autostainer™). DNA content was assessed after staining with 0.5% propidium iodide. Data were collected and analyzed using WinCyte software (Compucyte Corp.).
A 20-min exposure of proliferating cells to BrdU labeled the S-phase population at time zero. Chase samples were collected at 4, 8, 16 and 24 h. In control cultures (FIG. 2A), the BrdU-labeled population progressed through G2/M, first reappearing in the G1 population in the 8 h chase sample. […]

[2] = test system: RKO colon carcinoma cells; assay: DNA content of treated RKO cells by flow cytometry (cell cycle distribution); assay type: cell-based, human; conditions: 10 μg/ml; for cell cycle distribution (DNA content), early time points: 5 and 8 h
Description: Cells were cultured in DMEM with 10% fetal bovine serum (Hyclone). Cells were screened periodically for mycoplasma contamination (Gen-probe). Cerulenin (Sigma) C-75 and TOFA, dissolved in DMSO, were added from 5 mg/ml stock solutions; the final concentration of DMSO in cultures was at or below 0.2%. Cells were exposed to cerulenin or C-75 for the indicated doses and time intervals, then detached from plastic with trypsin for flow cytometry analysis. DNA content was measured by multiparameter flow cytometry using a FACStar^Plus flow cytometer equipped with argon and krypton lasers (Becton Dickinson).

p21WAF1/CIP1 = assay: Immunoblot of p21 protein in RKO cells; assay type: cell-based, human; conditions: 10 μg/ml, 16 and 24 h
Description: as §1

fatty acid synthesis = conditions: cited from earlier work

SMILES	DNA damage, olive tail moment (MCF7 breast cancer cells)	p53 protein level (p53)	kinase activity associated with immunoprecipitated cyclin A complexes, later time points [1]	apoptosis (MC540) in p53-deficient cells compared to parent line (RKO-p53 cells; RKO-p53 vs parent RKO, 24 h exposure, 5 or 10 μg/ml)	cell cycle progression of BrdU pulse-labeled cells (RKO cells)	cell cycle distribution (DNA content), early time points [2]	cell cycle distribution (DNA content), late time points ([2]; 16 and 24 h)	p21 protein level (p21WAF1/CIP1)	inhibitory effects on fatty acid synthesis (fatty acid synthesis)	effect of pretreatment on FAS inhibitor mediated apoptosis (RKO-p53 cells; RKO-p53 cells, TOFA pretreatment)
C/C=C/C/C=C/CCC(=O)[C@H]1O[C@H]1C(N)=O [cerulenin, (2R, 3S)-2,3-epoxy-4-oxo-7,10-trans,trans-dodecadienamide]	Neither cerulenin nor C-75 induced olive tail moments over background values	induced accumulation	increased moderately	large, dose-dependent increase in apoptosis	substantial delays in cell cycle progression	redistribution of cells into S phase and G2/M	S-phase fraction decreased substantially, with a redistribution of cells into G1 and G2/M	induced accumulation	–	–
C=C1C(=O)OC(CCCCCCCC)C1C(=O)O (stereo not shown) [C-75]	Neither cerulenin nor C-75 induced olive tail moments over background values	induced accumulation	increased moderately	–	exhibited a similar response	This effect was characteristic of both cerulenin and C-75 treatment	–	induced accumulation	comparable to those seen with cerulenin	–
CCCCCCCCCCCCCCOc1ccc(C(=O)O)o1 [TOFA, 5-(tetradecyloxy)-2-furoic acid]	–	–	–	–	–	–	–	–	–	did rescue FAS inhibitor mediated apoptosis
